Measurements reported in patent US20230138851A1, “NOVEL ALKYNE DERIVATIVES” (CARNA BIOSCIENCES, INC., priority 2020, published 2023).

Columns and labels:
Assay type in all cases: biochemical
DYRK1A = biological target: T1, DYRK1A (Homo sapiens, UniProt Q13627); assay: Inhibition test on activity of DYRK family, mobility shift assay (MSA), DYRK1A; settings: ATP 100 μM, FITC-labeled DYRKtide peptide substrate, room temperature 1 hour
T1 construct: purchased Carna Biosciences, Inc. 04-130
Summary of the method: (§1)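 FITC-DYRKtide phosphorylation in 20 mM HEPES pH 7.5 with MgCl2; ATP in the substrate mix was 100 μM (DYRK1A), 200 μM (DYRK1B), 40 μM (DYRK2) or 20 μM (DYRK3). Reactions ran 1 h at room temperature; inhibition from P/(P+S) versus blank and DMSO control, IC50 by regression on log concentration.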

DYRK1B = biological target: T2, DYRK1B (Homo sapiens, UniProt Q9Y463); assay: Inhibition test on activity of DYRK family, mobility shift assay (MSA), DYRK1B; set-up: Inhibitory Activity 1b (IC50 against DYRK1B): scale not given here; settings: ATP 200 μM, FITC-labeled DYRKtide peptide substrate, room temperature 1 hour
T2 construct: purchased Carna Biosciences, Inc. 04-131
Experimental: [Inhibition Test on Activity of DYRK Family (DYRK1A, DYRK1B, DYRK2, and […])]
(Method for Measuring Kinase Activity)
The kinase activity was measured by mobility shift assay (MSA) method using QuickScout Screening Assist™ MSA (commercially available kit manufactured by Carna Biosciences, Inc.). The substrate of the kinase reaction used was an FITC-labeled DYRKtide peptide included in the kit. An assay buffer [20 mM HEPES, 0.01% Triton X-100™, 2 mM dithiothreitol, pH 7.5] was used to create a substrate mixture solution with a substrate (4 μM), MgCl2 (20 mM), and ATP (DYRK1A: 100 μM; DYRK1B: 200 μM; DYRK2: 40 μM; and DYRK3: 20 μM). In addition, kinases (DYRK1A: manufactured by Carna Biosciences, Inc., Cat. No. 04-130; DYRK1B: manufactured by Carna Biosciences, Inc., Cat. No. 04-131; DYRK2; manufactured by Carna Biosciences, Inc., Cat. No. 04-132; and DYRK3; manufactured by Carna Biosciences, Inc., Cat. No. 04-133) were diluted with the assay buffer to prepare enzyme solutions (DYRK1A: 0.2 ng/μL; DYRK1B: 0.08 ng/μL; DYRK2: 0.04 ng/μL; and DYRK3: 0.25 ng/μL). The 10 mM solution of the test compound in DMSO was further diluted with DMSO to 10 levels of the concentration (0.00003 mM, 0.0001 mM, 0.0003 mM, 0.001 mM, 0.003 mM, 0.01 mM, 0.03 mM, 0.1 mM, 0.3 mM, and 1 mM), each of which was subjected to 25-fold dilution with the assay buffer to obtain a drug solution (4% DMSO solution). 5 μL of the drug solution or a control solution (4% DMSO-assay buffer), 5 μL of the substrate mixture solution, and 10 μL of the enzyme solution were mixed in the wells of a polypropylene 384-well plate and allowed to react at room temperature for 1 hour, and then the reaction was quenched by adding 60 μL of the termination buffer included in the kit. Subsequently, the quantities of the substrates (S) and the phosphorylated substrate (P) in the reaction solution were measured using LabChip EZ Reader II system (manufactured by Caliper Life Sciences) according to the protocol of the assay kit.
(Method for Evaluating Inhibitory Activity)
The heights of the peaks of the “substrate” and the “phosphorylated substrate” were expressed as S and P, respectively, and a blank containing the assay buffer instead of the enzyme solution was also measured.
The inhibition rate (%) of the test compound was calculated according to the following equation:
Inhibition rate (%)=(1−(C−A)/(B−A))×100
wherein, A, B, and C represent P/(P+S) of the blank well, P/(P+S) of the control solution well, and P/(P+S) of the compound-containing well, respectively.
The IC50 value was calculated via a regression analysis of the inhibition rate and the test compound concentration (logarithmic value).
The inhibiting activities of representative compounds of the present invention are shown against DYRK1A, DYRK1B, DYRK2, and DYRK3 in Tables 7 and 8. The kinase activity inhibitory effect was indicated with the mark *** at an IC50 value of less than 0.01 μM; the mark ** at 0.01 μM or more and less than 0.1 μM; the mark * at 0.1 μM or more and less than 1 μM; and the mark — at 1 μM or more (N.D. indicates not measured).

DYRK2 = biological target: T3, DYRK2 (Homo sapiens, UniProt Q92630); assay: Inhibition test on activity of DYRK family, mobility shift assay (MSA), DYRK2; settings: ATP 40 μM, FITC-labeled DYRKtide peptide substrate, room temperature 1 hour; for IC50: read-out: Inhibitory Activity 2 (IC50 against DYRK2)
T3 construct: purchased Carna Biosciences, Inc. 04-132
T3 sequence (Q92630 1-601): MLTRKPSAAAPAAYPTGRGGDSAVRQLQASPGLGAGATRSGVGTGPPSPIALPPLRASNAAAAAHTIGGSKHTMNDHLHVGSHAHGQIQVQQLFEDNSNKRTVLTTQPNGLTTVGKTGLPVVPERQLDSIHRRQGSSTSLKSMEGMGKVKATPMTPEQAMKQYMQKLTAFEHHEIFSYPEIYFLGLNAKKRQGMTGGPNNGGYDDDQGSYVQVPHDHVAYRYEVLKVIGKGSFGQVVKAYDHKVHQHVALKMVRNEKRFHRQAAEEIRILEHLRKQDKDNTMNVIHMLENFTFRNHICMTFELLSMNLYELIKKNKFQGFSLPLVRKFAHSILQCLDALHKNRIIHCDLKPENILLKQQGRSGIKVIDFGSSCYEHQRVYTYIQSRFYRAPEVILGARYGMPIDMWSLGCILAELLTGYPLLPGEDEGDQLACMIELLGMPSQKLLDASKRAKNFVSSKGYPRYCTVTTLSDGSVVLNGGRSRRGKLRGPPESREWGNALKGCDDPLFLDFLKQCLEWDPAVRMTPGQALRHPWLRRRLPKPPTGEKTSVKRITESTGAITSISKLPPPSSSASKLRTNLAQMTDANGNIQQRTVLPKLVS
Summary of the method: as §1

DYRK3 = biological target: T4, DYRK3 (Homo sapiens, UniProt O43781); assay: Inhibition test on activity of DYRK family, mobility shift assay (MSA), DYRK3; settings: ATP 20 μM, FITC-labeled DYRKtide peptide substrate, room temperature 1 hour; for IC50: read-out: Inhibitory Activity 3 (IC50 against DYRK3)
T4 construct: purchased Carna Biosciences, Inc. 04-133
T4 sequence (O43781 1-588): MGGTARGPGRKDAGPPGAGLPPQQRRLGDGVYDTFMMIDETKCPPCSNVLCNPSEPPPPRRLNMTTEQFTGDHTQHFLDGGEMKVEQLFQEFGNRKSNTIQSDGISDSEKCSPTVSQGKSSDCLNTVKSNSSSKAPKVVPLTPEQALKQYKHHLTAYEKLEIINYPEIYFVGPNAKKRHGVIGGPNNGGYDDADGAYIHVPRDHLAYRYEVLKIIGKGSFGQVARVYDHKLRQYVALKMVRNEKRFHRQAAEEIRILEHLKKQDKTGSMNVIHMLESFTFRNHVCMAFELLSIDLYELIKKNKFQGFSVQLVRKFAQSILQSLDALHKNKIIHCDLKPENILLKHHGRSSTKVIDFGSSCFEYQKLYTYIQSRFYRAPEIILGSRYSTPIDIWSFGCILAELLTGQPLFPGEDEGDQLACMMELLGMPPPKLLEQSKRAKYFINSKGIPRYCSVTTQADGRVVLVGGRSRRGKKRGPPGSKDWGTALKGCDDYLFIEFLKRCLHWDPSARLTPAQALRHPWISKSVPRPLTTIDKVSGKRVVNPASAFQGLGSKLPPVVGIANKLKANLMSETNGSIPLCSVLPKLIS
Summary of the method: as §1

T2 sequence (Q9Y463 whole entry): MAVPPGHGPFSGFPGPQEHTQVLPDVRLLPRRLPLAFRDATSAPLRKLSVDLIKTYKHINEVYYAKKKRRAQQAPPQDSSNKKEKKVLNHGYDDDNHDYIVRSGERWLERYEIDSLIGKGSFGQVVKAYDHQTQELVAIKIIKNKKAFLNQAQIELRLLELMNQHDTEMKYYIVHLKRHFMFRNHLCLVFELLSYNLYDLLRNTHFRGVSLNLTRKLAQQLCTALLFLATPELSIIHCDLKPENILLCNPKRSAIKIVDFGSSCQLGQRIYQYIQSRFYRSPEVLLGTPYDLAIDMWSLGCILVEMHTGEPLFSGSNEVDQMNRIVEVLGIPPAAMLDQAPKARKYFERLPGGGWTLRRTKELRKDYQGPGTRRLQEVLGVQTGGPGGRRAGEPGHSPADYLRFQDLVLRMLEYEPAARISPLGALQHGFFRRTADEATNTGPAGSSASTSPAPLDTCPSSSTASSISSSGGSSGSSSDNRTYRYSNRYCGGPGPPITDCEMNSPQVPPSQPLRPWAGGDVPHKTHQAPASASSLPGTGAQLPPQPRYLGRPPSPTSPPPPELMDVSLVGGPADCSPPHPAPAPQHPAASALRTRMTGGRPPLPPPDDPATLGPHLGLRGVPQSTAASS

Row | SMILES | Inhibitory Activity 1a (IC50 against DYRK1A) (DYRK1A) | Inhibitory Activity 1b (IC50 against DYRK1B) (DYRK1B) | IC50 (DYRK2) [nM] | Inhibitory Activity 3 (IC50 against DYRK3) (DYRK3) | IC50 (DYRK3) [nM] | Inhibitory Activity 2 (IC50 against DYRK2) (DYRK2) | IC50 (DYRK1A; read-out: Inhibitory Activity 1a (IC50 against DYRK1A)) [nM] | IC50 (DYRK1B; read-out: Inhibitory Activity 1b (IC50 against DYRK1B)) [nM]
1 | CC#CC1CNC(=O)N1c1nc2c3c(ccc2s1)OCC3 (racemic) [Example 8, (RS)-1-(7,8-dihydrobenzofuro[4,5-d]thiazol-2-yl)-5-(prop-1-yn-1-yl)imidazolidin-2-one] | * * * | * * * | 100 to 1000 | * * | – | – | – | –
2 | CC#CC1CNC(=O)N1c1nc2c(ccc3ncn(CCOC)c32)s1 (racemic) [Example 33, (RS)-1-[8-(2-methoxyethyl)-8H-imidazo[4′,5′:5,6]benz[1,2-d]thiazol-2-yl]-5-(prop-1-yn-1-yl)imidazolidin-2-one] | * * | * * | 100 to 1000 | – | 100 to 1000 | – | – | –
3 | CC#CC1CNC(=O)N1c1nc2c(ccc3nnn(C)c32)s1 (racemic) [Example 28, (RS)-1-(1-methyl-1H-thiazolo[4′,5′:3,4]benz[1,2-d][1,2,3]triazol-7-yl)-5-(prop-1-yn-1-yl)imidazolidin-2-one] | * * * | * * * | ≥ 1000 | – | 100 to 1000 | – | – | –
4 | CC#C[C@H]1CNC(=O)N1c1nc2c3c(ccc2s1)OCO3 [Example 3, (S)-1-([1,3]dioxolo[4′,5′:5,6]benzo[1,2-d]thiazol-7-yl)-5-(1-propyn-1-yl)imidazolidin-2-one] | * * | * * | ≥ 1000 | – | ≥ 1000 | – | – | –
5 | CC#C[C@@H]1CNC(=O)N1c1nc2c3c(ccc2s1)OCO3 [Example 2, (R)-1-([1,3]dioxolo[4′,5′:5,6]benzo[1,2-d]thiazol-7-yl)-5-(1-propyn-1-yl)imidazolidin-2-one] | * * * | * * * | – | * * | – | * * | – | –
6 | CC#CC1CNC(=O)N1c1nc2c(ccc3nnn(C)c32)s1 (single isomer, unassigned) [Example 29, 1-(1-methyl-1H-thiazolo[4′,5′:3,4]benz[1,2-d][1,2,3]triazol-7-yl)-5-(prop-1-yn-1-yl)imidazolidin-2-one] | – | – | ≥ 1000 | – | ≥ 1000 | – | 100 to 1000 | 100 to 1000
7 | CC#CC1CNC(=O)N1c1nc2c(ccc3nnn(C)c32)s1 (single isomer, unassigned) [Example 30, 1-(1-methyl-1H-thiazolo[4′,5′:3,4]benz[1,2-d][1,2,3]triazol-7-yl)-5-(prop-1-yn-1-yl)imidazolidin-2-one] | * * * | * * * | 100 to 1000 | – | 100 to 1000 | – | – | –
8 | CC#CC1CNC(=O)N1c1nc2c(ccc3nccnc32)s1 (racemic) [Example 24, (RS)-5-(prop-1-yn-1-yl)-1-(thiazolo[4,5-f]quinoxalin-2-yl)imidazolidin-2-one] | * * * | * * * | 100 to 1000 | – | 100 to 1000 | – | – | –
9 | CC#CC1CNC(=O)N1c1nc2c(ccc3ncccc32)s1 (racemic) [Example 27, (RS)-5-(prop-1-yn-1-yl)-1-(thiazolo[4,5-f]quinolin-2-yl)imidazolidin-2-one] | * ** | * * * | 100 to 1000 | * * | – | – | – | –
10 | CC#CC1CNC(=O)N1c1nc2c(ccc3ncn(C)c32)s1 (racemic) [Example 26, (RS)-1-(8-methyl-8H-imidazo[4′,5′:5,6]benz[1,2-d]thiazol-2-yl)-5-(prop-1-yn-1-yl)imidazolidin-2-one] | * * * | * * * | 100 to 1000 | * * | – | – | – | –
11 | CC#CC1CNC(=O)N1c1nc2c(ccc3ncn(C4CCOCC4)c32)s1 (racemic) [Example 32, (RS)-5-(prop-1-yn-1-yl)-1-[8-(tetrahydro-2H-pyran-4-yl)-8H-imidazo[4′,5′:5,6]benz [1,2-d]thiazol-2-yl]imidazolidin-2-one] | * * * | * * * | – | * * | – | * * | – | –
12 | CC#C[C@@H]1[C@H](C)NC(=O)N1c1nc2c3c(ccc2s1)OCO3 [Example 23, (4S,5R)-1-([1,3]dioxolo[4′,5′:5,6]benzo[1,2-d]thiazol-7-yl)-4-methyl-5-(prop-1-yn-1-yl)imidazolidin-2-one] | * * * | – | 100 to 1000 | – | 100 to 1000 | – | – | –
